# Results: paper PMC11984407, “A natural small molecule isoginkgetin alleviates hypercholesterolemia and atherosclerosis by targeting ACLY” (Theranostics, 2025)
# How the values were obtained:
# Apoe-/- mice = assay: High cholesterol diet-induced atherosclerosis in Apoe-/- mice; assay type: in vivo, mouse
# Protocol: C57BL/6J (N000013, Gempharmatech, Nanjing, Jiangsu, China) and Apoe^-/- (T001458, Gempharmatech, Nanjing, Jiangsu, China) mice were employed. […] Alipoprotein E knockout (Apoe^-/-) mice were subjected to a 1.25% high cholesterol diet (#D12108C, RESEARCH DIETS, New Brunswick, NJ, USA). After 7 weeks of atherosclerosis induction, intraperitoneal injection of ISOGK (20 mg/kg/day) was initiated and continued for additional 8 weeks. Upon reaching the designated experimental endpoint, blood was collected retro-orbitally, and serum was isolated for subsequent biochemical parameter analysis. Subsequently, the aorta and heart tissues were processed. The aorta was subjected to Oil Red O staining (#G1260, SolarBio, Beijing, China) for en face examination, and cryosections of the aortic sinus were prepared for analysis as we previously described. The serum lipid profile was evaluated utilizing colorimetric kits from Leidu Biotech (Shenzhen, China). Liver samples were gathered, processed into a homogenate, and then centrifuged. The resulting transparent supernatant was utilized for assessing hepatic triglyceride (TG) and total cholesterol (TC) concentrations using kits obtained from commercial sources (290-63701 for TG, 294-65801 for TC; Wako, Tokyo, Japan and E-BC-K261-M for TG, E-BC-K109-M for TC; Elabscience, Wuhan, China). The levels of TG and TC were normalized against the weight of the liver tissue. Kits for antioxidant-related indicators, including GSH (S0059S, Beyotime, Shanghai, China), MDA (S0131S, Beyotime, Shanghai, China), SOD (S0101S, Beyotime, Shanghai, China), and ox-LDL (CSB-E07933m, CUSABIO, Beijing, China), were detected in mouse serum. Acly^flox/flox mice were sourced from the Shanghai Model Organisms Center (no. NM-CKO-200076). The Institutional Animal Care and Use Committee of the University of Science and Technology of China (USTC) approved all animal care procedures (approval number USTCACUC27120124102, USTCACUC212401038).
# (§1) Plasma levels of TC, TG, LDL-C, and high-density lipoprotein cholesterol (HDL-C) were determined following the manufacturer's instructions. Liver tissues (30-40 mg) were homogenized in 0.5 mL of cold PBS for hepatic TG and cholesterol measurement. A 0.4 mL homogenate was combined with 1.4 mL of a CHCl3/CH3OH mixture (2:1, v/v) and shaken overnight at room temperature. Following centrifugation at 2,500 × g for a period of 10 min, the organic phase was meticulously transferred and permitted to air-dry. The residual organic material was then reconstituted in 800 μL of ethanol containing 1% Triton X-100, whereby the ethanol served to solubilize the material.
# Fast protein liquid chromatography (FPLC) was employed to analyze plasma lipoproteins using 200 μL of pooled plasma samples. The samples were initially filtered through 0.22-µm filters and subsequently loaded onto Tricorn high-performance Superose S-6 10/300GL columns (Amersham Biosciences). Elution was conducted with PBS at a constant flow rate of 0.25 mL/min. The eluted fractions (500 μL each) were subjected to analysis for TG and TC concentrations using the aforementioned commercial assay kits.
# Cytokines, including C-reactive protein (CRP) (RK04303, ABclonal, Guangzhou, China), interleukin-1 beta (IL-1 β) (RK00006, ABclonal, Guangzhou, China), and interleukin-6 (IL-6) (RK00008, ABclonal, Guangzhou, China), were extracted from mouse serum and analyzed using enzyme-linked immunosorbent assay (ELISA) kits. All procedures were conducted in accordance with the instructions provided by the manufacturers.
# Tissue slides from the male Apoe^-/- mice aortic sinus was washed with PBS and then permeabilized in a solution of PBS with 0.3% BSA and 0.03% Triton X-100 for 1 h at room temperature. These sections were subsequently incubated overnight with primary antibodies at a 1:400 dilution, followed by a 1-h incubation with Alexa Fluor 488 or 546-conjugated sary antibodies at a 1:2000 dilution, also at room temperature. […]
# Ldlr-/- hamsters = assay: High cholesterol diet-fed Ldlr-/- hamsters; assay type: in vivo, hamster
# Protocol: Syrian golden hamsters with a deficiency in the low-density lipoprotein receptor (Ldlr) gene were generated using the clustered regularly interspaced short palindromic repeats (CRISPR) and CRISPR-associated protein 9 (Cas9) gene editing system, as previously described. Male Ldlr^-/- hamsters at 8-week-old were randomly divided into three groups. The animals were administered with vehicle, ISOGK (2 mg/kg/day), or ISOGK (5 mg/kg/day) for a period of four weeks. The hamsters were maintained on a 14-h light/10-h dark cycle at 24 °C and were fed a 1.25% high cholesterol diet. Unless otherwise stated, the hamsters were fasted for 12 h prior to euthanasia. All experiments were conducted in accordance with the principles of experimental animal care (NIH publication no. 85-23, revised 1996) and were approved by the Animal Care and Use Committee of Peking University (approval number LA2022-147).
# as §1
# [1] = 20 mg/kg/day i.p., 8 weeks, male or female Apoe-/- mice
# [2] = female Apoe-/- mice, 20 mg/kg/day, 8 weeks
# [3] = male Apoe-/- mice, 20 mg/kg/day, 8 weeks
smiles,measurement,setting,value
"COc1ccc(-c2cc(=O)c3c(O)cc(O)c(-c4cc(-c5cc(=O)c6c(O)cc(O)cc6o5)ccc4OC)c3o2)cc1 [ISOGK, Isoginkgetin]",body weight vs vehicle,Apoe-/- mice; [1],No significant changes in body weight
same,serum ALT and AST,Apoe-/- mice; [1],no significant changes
same,liver H&E and Sirius red staining,"Apoe-/- mice; 20 mg/kg/day, 8 weeks, Apoe-/- mice",no substantial pathological alterations
same,necrotic core area in aortic sinus (H&E),"Apoe-/- mice; Apoe-/- mice, 20 mg/kg/day, 8 weeks",notable reduction in the necrotic core area
same,"oxidative stress markers in serum (GSH, MDA, SOD, ox-LDL)","Apoe-/- mice; Apoe-/- mice, 8 weeks",no significant alterations
same,LDLR and ACLY protein expression in liver tissues,"Apoe-/- mice; Apoe-/- mice, Western blot",no significant change in either LDLR or ACLY protein expression
same,TG levels in serum and liver tissue,"Apoe-/- mice; Apoe-/- mice, irrespective of gender",notable decline in TG levels
same,serum LDL-C and HDL-C,Apoe-/- mice; female Apoe-/- mice,remained unchanged
same,decrease in aortic sinus lesion area (ORO) vs vehicle,Apoe-/- mice; [2],45.74%
same,decrease in liver tissue TC,Apoe-/- mice; [2],32.34%
same,decrease in serum TC,Apoe-/- mice; [2],24.24%
same,reduction of en face aortic lesion area (ORO) vs vehicle,Apoe-/- mice; [2],3.88%
same,TG and cholesterol carried in VLDL particles (FPLC),"Apoe-/- mice; female Apoe-/- mice, pooled plasma",significant reduction
same,serum LDL-C,Apoe-/- mice; male Apoe-/- mice,decreased the serum levels of LDL-C
same,content of macrophages in the aortic sinus (immunofluorescence),Apoe-/- mice; [3],substantial decline
same,content of smooth muscle cells and endothelial cells in the aortic sinus,Apoe-/- mice; [3],remained unaltered
same,decrease in aortic sinus lesion area (ORO) vs vehicle,Apoe-/- mice; [3],46.35%
same,decrease in liver tissue TC,Apoe-/- mice; [3],29.98%
same,decrease in serum TC,Apoe-/- mice; [3],27.15%
same,expression of cholesterol efflux genes in the liver,"Apoe-/- mice; male Apoe-/- mice, qRT-PCR",no significant differences
same,"serum CRP, IL-1β and IL-6 (ELISA)","Apoe-/- mice; male or female Apoe-/- mice, vehicle vs ISOGK",no statistically significant differences
same,lipid accumulation in aortic sinus (Oil Red O),Ldlr-/- hamsters,significantly reduced lipid accumulation
same,lipid accumulation in liver tissues (Nile Red),Ldlr-/- hamsters,significantly reduced lipid accumulation
same,reduction in hepatic TC vs vehicle,Ldlr-/- hamsters; 2 mg/kg/day i.p.,25.89%
same,reduction in hepatic TC vs vehicle,Ldlr-/- hamsters; 5 mg/kg/day i.p.,35.75%
same,decrease in serum TG levels (Figure 5B),Ldlr-/- hamsters; high dose 5 mg/kg/day,61.32%
same,decrease in serum non-HDL-C,Ldlr-/- hamsters; high dose 5 mg/kg/day,51.76%
same,reduction in serum TC (Figure 5C),Ldlr-/- hamsters; high dose 5 mg/kg/day,52.15%
same,reduction in serum TG (Figure 5C),Ldlr-/- hamsters; high dose 5 mg/kg/day,51.38%
same,reduction of aortic plaque area (Oil Red O) vs vehicle,Ldlr-/- hamsters; high-dose 5 mg/kg/day,29.85%
same,serum HDL-C levels,Ldlr-/- hamsters; low and high doses,without affecting HDL-C levels
same,decrease in serum TG levels (Figure 5B),Ldlr-/- hamsters; low dose 2 mg/kg/day,47.57%
same,decrease in serum non-HDL-C,Ldlr-/- hamsters; low dose 2 mg/kg/day,28.16%
same,reduction in serum TC (Figure 5C),Ldlr-/- hamsters; low dose 2 mg/kg/day,28.72%
same,reduction in serum TG (Figure 5C),Ldlr-/- hamsters; low dose 2 mg/kg/day,47.99%
same,reduction of aortic plaque area (Oil Red O) vs vehicle,Ldlr-/- hamsters; low-dose 2 mg/kg/day,21.74%
